Key:
[1] = target: T1, human olfactory receptor OR4Q3 (Homo sapiens, UniProt Q8NH05); experiment: Luciferase reporter gene assay, response of OR4Q3 to odorous substances; type: cell-based; details: various concentrations; cells stimulated 3 hours; FIGS. 2, 4, 5, 6
T1 construct: N-terminal 20 amino acid residues of bovine rhodopsin (Rho tag); expressed in transfected cells; host or cells: HEK293T
T1 sequence (Q8NH05 1-313): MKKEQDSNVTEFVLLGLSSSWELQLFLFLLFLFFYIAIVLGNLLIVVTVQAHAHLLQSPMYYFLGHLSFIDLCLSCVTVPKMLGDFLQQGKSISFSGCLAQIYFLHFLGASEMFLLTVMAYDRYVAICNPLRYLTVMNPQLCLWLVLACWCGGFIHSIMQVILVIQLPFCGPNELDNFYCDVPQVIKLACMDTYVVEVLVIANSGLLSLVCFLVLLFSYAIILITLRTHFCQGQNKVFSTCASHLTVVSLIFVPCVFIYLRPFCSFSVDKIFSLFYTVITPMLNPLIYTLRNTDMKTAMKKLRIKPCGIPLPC
Experimental: (§1) Human olfactory receptor genes were obtained by PCR cloning with Human Genomic DNA: Female (Promega) on the basis of their sequence information registered in GenBank. Into pME18S vectors, the N-terminal 20 amino acid residues of bovine rhodopsin were integrated and the resulting human olfactory receptor genes were integrated respectively downstream thereof to obtain human olfactory receptor gene expression vectors.
(§2) Each human olfactory receptor gene expression vector (0.05 μg), RTP1S vector (0.01 μg), firefly luciferase vector pGL4.29 containing a cAMP response element promoter (Promega, 0.01 μg) and Renilla luciferase vector pGL4.74 containing a thymidine kinase promoter (Promega, 0.005 μg) were dissolved in 10 μL of Opti-MEMI (gibco) to give a gene solution (for one well). HEK293T cells were seeded in 100 μL volumes into 96-well plates (Biocoat, Corning) at a cell density reaching confluence after 24 hours, and the gene solutions were added to the respective wells to cause gene transfer into the cells by lipofection techniques in accordance with the usage of Lipofectamine 3000, followed by culture at 37° C. under a 5% carbon dioxide atmosphere for 24 hours.
(§3) After removal of the culture solutions, an odorous substance serving as an analyte, which had been prepared at a given concentration with CD293 (gibco) medium (supplemented with […] L-glutamine), was added in 50 μL volumes to stimulate the cells for 3 hours, followed by luciferase activity measurement in accordance with the usage of a Dual-Luciferase Reporter Assay System (Promega). The response intensity of each olfactory receptor polypeptide was expressed as a fold increase value, which was determined by dividing the luciferase activity generated upon stimulation with the odorous substance by the luciferase activity generated in a test system not containing the odorous substance.
(§4) The cells engineered to express human olfactory receptors OR2C1 and OR4Q3 were used to measure the response of these receptors to various concentrations of 1-octen-3-one by the luciferase reporter gene assay.
According to the same procedure as shown in Example 1, the cells engineered to express human olfactory receptors OR2C1 and OR4Q3 were used to measure the response of these receptors to various concentrations of 1,5-octadien-3-one by the luciferase reporter gene assay.
According to the same procedure as shown in Example 1, the cells engineered to express human olfactory receptor OR4Q3 were used to measure the response of this receptor to various concentrations of 1-octen-3-ol by the luciferase reporter gene assay. […]

[2] = tested on: cells not engineered to express the olfactory receptors; experiment: Mock test of the luciferase reporter gene assay; type: cell-based, human
Experimental: as §2, §3, §4

[3] = target: T2, human olfactory receptor OR2C1 (Homo sapiens, UniProt O95371); experiment: Luciferase reporter gene assay, response of OR2C1 to odorous substances; type: cell-based; details: various concentrations; cells stimulated 3 hours; FIGS. 1 and 3
T2 construct: N-terminal 20 amino acid residues of bovine rhodopsin (Rho tag); expressed in transfected cells; host or cells: HEK293T
T2 sequence (O95371 1-312): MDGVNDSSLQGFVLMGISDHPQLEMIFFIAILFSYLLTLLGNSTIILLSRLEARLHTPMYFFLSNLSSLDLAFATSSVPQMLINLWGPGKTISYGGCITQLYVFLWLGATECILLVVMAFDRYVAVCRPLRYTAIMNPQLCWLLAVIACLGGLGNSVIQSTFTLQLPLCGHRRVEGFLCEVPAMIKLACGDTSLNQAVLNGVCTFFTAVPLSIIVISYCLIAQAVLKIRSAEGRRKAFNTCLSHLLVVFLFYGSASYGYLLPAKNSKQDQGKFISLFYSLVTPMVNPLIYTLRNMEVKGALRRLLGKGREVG
Description: as §1, with “vectors. […]” for “vectors.”
as §3, with “substance. […]” for “substance.”

[4] = Sensory testing of offensive odor intensity, single offensive odors (Example 7); set-up: species or system human; details: for Offensive odor intensity 1,5-Octadien-3-ol: 1,5-octadien-3-ol diluted 100-fold with triethyl citrate; for Offensive odor intensity 1,5-Octadien-3-ol / Offensive odor intensity 1,5-Octadien-3-one / Offensive odor intensity 1-Octen-3-ol / Offensive odor intensity 1-Octen-3-one / Offensive odor intensity Trans-2-nonenal / Offensive odor intensity Trans-2-octenal: 10 μl, test substance 1 μl, odor alone set to 8, scale 0 to 10, mean of 10 panelists; for Offensive odor intensity 1,5-Octadien-3-one: 1,5-octadien-3-one diluted 1000-fold with triethyl citrate; for Offensive odor intensity 1-Octen-3-ol: 1-octen-3-ol diluted 100-fold with triethyl citrate; for Offensive odor intensity 1-Octen-3-one: 1-octen-3-one diluted 100-fold with triethyl citrate; for Offensive odor intensity Trans-2-nonenal: trans-2-nonenal diluted 1000-fold with triethyl citrate; for Offensive odor intensity Trans-2-octenal: trans-2-octenal diluted 1000-fold with triethyl citrate; for suppressive effect on offensive odors (each offensive odor of Example 7): summary in words for all six offensive odors
Description: Test substances having inhibitory activity on receptor activity were confirmed for their ability to suppress offensive odors by sensory testing. As offensive odors, trans-2-nonenal diluted 1000-fold with triethyl citrate, trans-2-octenal diluted 1000-fold with triethyl citrate, 1-octen-3-one diluted 100-fold with triethyl citrate, 1,5-octadien-3-one diluted 1000-fold with triethyl citrate, 1-octen-3-ol diluted 100-fold with triethyl citrate, and 1,5-octadien-3-ol diluted 100-fold with triethyl citrate were each added dropwise separately in a volume of 10 μl and a test substance was added dropwise in a volume of 1 μl to a cotton ball, which was then enclosed in a plastic bottle (OZO-40, Takemoto Yohki Co., Ltd., Japan). Each bottle was allowed to stand for 1 hour at room temperature to fully volatilize odor molecules in the bottle. Sensory testing was made by 10 panelists assuming that the odor intensity was set to 8 for each offensive odor when added dropwise alone, whereby the offensive odor intensity when a test substance was mixed was evaluated between 0 and 10. The resulting numerical values were used to calculate their mean value.

OR2C1 = target: T3, OR2C1 (Homo sapiens, UniProt O95371); experiment: Suppressive effect of offensive odor-suppressing materials on the response of OR2C1; type: cell-based; details: for suppressive effect on the response of OR2C1 to 1-octen-3-one: mixed at various concentrations with 30 μM 1-octen-3-one, response without material set to 100, FIGS. 7 and 8; for suppressive effect on the response of OR2C1 to trans-2-nonenal: mixed at various concentrations with 60 μM trans-2-nonenal, FIGS. 9 and 10; for suppressing the response of OR2C1: odorous substance not stated
T3 construct: N-terminal 20 amino acid residues of bovine rhodopsin (Rho tag); expressed in transfected cells; host or cells: HEK293T
T3 sequence (O95371 1-312): T2 sequence (O95371 1-312)
Experimental: as §3
According to the same procedure as shown in Example 1, offensive odor-suppressing materials 2-methyl-4-(2,2,3-trimethylcyclopent-3-enyl)but-2-en-1-ol (also known as 2-methyl-4-(2,2,3-trimethyl-3-cyclopentenyl)-2-buten-1-ol) (Hindinol®) and 1-(2,2,6-trimethylcyclohexyl)hexan-3-ol (Dextramber®) were each mixed at various concentrations with 30 μM 1-octen-3-one, and the cells engineered to express OR2C1 were used to measure the response of this receptor to 1-octen-3-one. The ratio of the fold increase value obtained in the test using the offensive odor-suppressing materials was determined assuming that the fold increase value obtained in the test without mixing the offensive odor-suppressing materials was set to 100.
According to the same procedure as shown in Example 5, offensive odor-suppressing materials 2-methyl-4-(2,2,3-trimethylcyclopent-3-enyl)but-2-en-1-ol (Hindinol®) and 1-(2,2,6-trimethylcyclohexyl)hexan-3-ol (Dextramber®) were each mixed at various concentrations with 60 μM trans-2-nonenal, and the cells engineered to express OR2C1 were used to measure the response of this receptor to trans-2-nonenal.

[5] = Sensory testing of offensive odor intensity, model odors (Example 8); set-up: species or system human
Experimental: These fragrance compositions 1 to 48 were confirmed for their ability to suppress offensive odors by sensory testing. As offensive odors, the model age-related body odor, the model underarm odor and the model musty odor indicated in Tables 8 to 10 below were each diluted 100-fold and added dropwise separately in a volume of […] and fragrance compositions 1 to 48 were each added dropwise separately in a volume of 1 μl as a test substance to a cotton ball, which was then enclosed in a plastic bottle (OZO-40, Takemoto Yohki Co., Ltd., Japan). Each bottle was allowed to stand for 1 hour at room temperature to fully volatilize odor molecules in the bottle. Sensory testing was made by 10 panelists assuming that the odor intensity was set to 8 for each offensive odor when added dropwise alone, whereby the offensive odor intensity when a test substance was mixed was evaluated between 0 and 10. The resulting numerical values were used to calculate their mean value.

olfactory receptor OR2W1 = target: T4, olfactory receptor OR2W1 (Homo sapiens, UniProt Q9Y3N9); details: background art; cited from earlier work
T4 sequence (Q9Y3N9 1-320): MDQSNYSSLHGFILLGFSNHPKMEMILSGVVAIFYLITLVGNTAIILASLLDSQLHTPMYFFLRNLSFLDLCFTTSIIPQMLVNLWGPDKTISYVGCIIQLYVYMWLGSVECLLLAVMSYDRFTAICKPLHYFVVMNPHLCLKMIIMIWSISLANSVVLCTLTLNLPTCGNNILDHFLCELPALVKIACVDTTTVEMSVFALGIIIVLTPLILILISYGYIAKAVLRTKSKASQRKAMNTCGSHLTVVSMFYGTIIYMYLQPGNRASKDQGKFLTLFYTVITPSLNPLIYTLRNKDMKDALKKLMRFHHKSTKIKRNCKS

SMILES	response of olfactory receptor OR4Q3 to the odorous substance (fold increase value) [1]	response in Mock test [2]	Offensive odor intensity 1,5-Octadien-3-ol [4]	Offensive odor intensity 1,5-Octadien-3-one [4]	Offensive odor intensity 1-Octen-3-ol [4]	Offensive odor intensity 1-Octen-3-one [4]	Offensive odor intensity Trans-2-nonenal [4]	Offensive odor intensity Trans-2-octenal [4]	other results
C=CC(O)CC=CCC (stereo not shown) [1,5-octadien-3-ol]	respond to 1,5-octadien-3-ol in a concentration-dependent manner	no response was observed in a Mock test							
C=CC(=O)CC=CCC [1,5-octadien-3-one]	respond to 1,5-octadien-3-one in a concentration-dependent manner	no response was observed in a Mock test							response of olfactory receptor OR2C1 to the odorous substance (fold increase value) [3]: respond to 1,5-octadien-3-one in a concentration-dependent manner
C=CC(O)CCCCC (stereo not shown) [1-octen-3-ol]	respond to 1-octen-3-ol in a concentration-dependent manner	no response was observed in a Mock test							
C=CC(=O)CCCCC [1-octen-3-one]	respond to 1-octen-3-one in a concentration-dependent manner	no response was observed in a Mock test							response of olfactory receptor OR2C1 to the odorous substance (fold increase value) [3]: respond to 1-octen-3-one in a concentration-dependent manner
O=C(OCc1ccccc1)c1ccccc1O [Benzyl salicylate, reference compound]			6.5	7.8	7.0	7.5	7.9	7.5	
CCCC(O)CCC1C(C)CCCC1(C)C (stereo not shown) [Dextramber, 1-(2,2,6-trimethylcyclohexyl)hexan-3-ol]			1.9	2.6	2.0	2.3	2.8	2.2	suppressive effect on the response of OR2C1 to 1-octen-3-one (OR2C1): reducing the response of OR2C1 to 1-octen-3-one in a concentration-dependent manner; suppressive effect on the response of OR2C1 to trans-2-nonenal (OR2C1): reducing the response of OR2C1 to trans-2-nonenal in a concentration-dependent manner; suppressing the response of OR2C1 (OR2C1): suppressing the response of OR2C1; suppressive effect on offensive odors (each offensive odor of Example 7) [4]: found to suppress each offensive odor; suppressive effect on offensive odors (each model odor of Example 8) ([5]; summary in words for the model odors): found to suppress each offensive odor
CC(=CCC1CC=C(C)C1(C)C)CO (stereo not shown) [Hindinol, 2-methyl-4-(2,2,3-trimethylcyclopent-3-enyl)but-2-en-1-ol]									suppressive effect on the response of OR2C1 to 1-octen-3-one (OR2C1): reducing the response of OR2C1 to 1-octen-3-one in a concentration-dependent manner; suppressive effect on the response of OR2C1 to trans-2-nonenal (OR2C1): reducing the response of OR2C1 to trans-2-nonenal in a concentration-dependent manner; Offensive odor intensity Model age-related body odor ([5]; model odor of Table 8 diluted 100-fold, fragrance composition 1 μl, odor alone set to 8, scale 0 to 10, mean of 10 panelists): suppress the intensity of the model age-related body odor and the model underarm odor; Offensive odor intensity Model underarm odor ([5]; model odor of Table 9 diluted 100-fold, fragrance composition 1 μl, odor alone set to 8, scale 0 to 10, mean of 10 panelists): suppress the intensity of the model age-related body odor and the model underarm odor
O=C1CCCCCCCCCCCC(=O)OCCO1 [MUSK T, 1,4-dioxacycloheptadecane-5,17-dione]			3.0	3.2	3.2	2.8	2.9	2.9	suppressing the response of OR2C1 (OR2C1): suppressing the response of OR2C1; suppressive effect on offensive odors (each offensive odor of Example 7) [4]: found to suppress each offensive odor
CCCCCC(=O)O [hexanoic acid]									response of olfactory receptor OR2W1 (olfactory receptor OR2W1): responds to hexanoic acid
